Data as given in publication PMC10216478, “Development of a Non-Peptide Angiotensin II Type 1 Receptor Ligand by Structural Modification of Olmesartan as a Biased Agonist” (Biomedicines, 2023).
Where a chain is given by its changes, count along the chain named.

Tests used:
[1] = molecular target: T1, AT1 Q257A receptor (Rattus norvegicus, UniProt P25095, Q257A); assay: IP production assay in COS7 cells expressing AT1-Q257A receptor; type: cell-based; settings: 1 µM ligands or 0.1 µM Ang II, 30 min, n = 5, vs. (-)
T1 construct: expressed in transfected cells; host or cells: COS7
T1 sequence (P25095 1-359 Q257A): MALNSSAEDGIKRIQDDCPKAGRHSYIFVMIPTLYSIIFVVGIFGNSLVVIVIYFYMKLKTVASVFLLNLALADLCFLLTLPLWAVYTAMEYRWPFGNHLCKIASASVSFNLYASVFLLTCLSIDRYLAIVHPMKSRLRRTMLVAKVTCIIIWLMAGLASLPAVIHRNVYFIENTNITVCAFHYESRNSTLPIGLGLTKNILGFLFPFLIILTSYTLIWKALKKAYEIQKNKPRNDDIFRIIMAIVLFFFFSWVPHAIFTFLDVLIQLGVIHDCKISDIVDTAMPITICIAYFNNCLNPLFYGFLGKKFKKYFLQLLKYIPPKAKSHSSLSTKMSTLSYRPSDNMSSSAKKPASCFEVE
Protocol: (§1) The synthetic rat AT1 receptor gene, which was cloned in the shuttle expression vector pMT-2, was used for expression and mutagenesis, as described previously. […] In the experiments, cells were grown without a cell-growth supplement. To express the AT1 receptor protein, 10 µg of purified plasmid DNA per 10^7 cells was used in the transfection. Wild-type and mutated AT1 receptors were transiently transfected into cells using Lipofectamine 2000 liposomal reagent (Roche Applied Science, Penzberg, Germany). Cells were plated and grown and were 70–90% confluent at the time of transfection. We incubated plasmid DNA (10 µg)–lipid (10 µL) complexes for 5 min at room temperature and added and incubated the complexes with cells for 24 h. We then analyzed the parameters in transfected cells. […] Transfected cells that had been cultured for 48–72 h were harvested. Cell membranes were prepared using the nitrogen Parr bomb disruption or freeze–thaw methods.
(§2) Ligand (such as agonist or antagonist)-induced IP production through the AT1 receptor in transfected COS7 cells transiently expressing the AT1 receptor was measured to evaluate cell signaling as a second messenger for controlling blood pressure, since the increases in the intracellular Ca^2+ concentration were the result of IP accumulation, which indicated vasoconstriction. As a surrogate model with higher levels of AT1 receptor expression, COS7 cells are suitable for IP measurement because it is easy to detect differences in IP production. Cells were labeled for 24 h with [^3H]-myoinositol at 37 °C in DMEM containing 10% FBS. Next, the cells were washed with buffer 3 times and incubated with a medium containing 10 mM LiCl for 20 min; 0.1 µM Ang II or 1 µM ligands were added and incubation was continued for another 30 min at 37 °C. After incubation, the medium was removed, and total soluble IP was extracted from the cells using the perchloric acid extraction method, as described previously. Cells were plated at a field density of 5 × 10^3 cells/cm^2 in 60 mm dishes and cultured in a fresh growth medium at 37 °C in a DMEM 5% CO2 incubator. […] The culture medium was changed 48 h after transfection and 1.5 mL of 1 μCi/mL of [^3H]-myoinositol was added to each 60-mm dish at 37 °C in DMEM containing 10% FBS. After labeling, the cells were washed with buffer 3 times and incubated with a medium containing 10 mM LiCl for 20 min. The indicated concentration of ligands was added and incubation was continued for an additional 30 min at 37 °C. After incubation, the medium was removed, and total soluble IP was extracted from the cells using the perchloric acid extraction method. Total IP production was expressed as the sum of radioactivity, as described previously.

[2] = molecular target: T2, AT1 wild-type receptor (Rattus norvegicus, UniProt P25095); assay: IP production assay in COS7 cells expressing AT1 wild-type receptor; type: cell-based; settings: for Effect on IP production: AT1 wild-type receptor, COS7 cells, 1 µM ligands or 0.1 µM Ang II, 30 min, n = 5, vs. (-); for Mode of action with regard to IP production: authors' classification from IP production at AT1 wild-type receptor
T2 construct: expressed in transfected cells; host or cells: COS7
T2 sequence (P25095 1-359): T1 sequence (P25095 1-359 Q257A) with A257Q
Protocol: as §1, §2

SMILES | Effect on IP production [1] | Effect on IP production [2] | Mode of action with regard to IP production [2]
CCCc1nc(C(C)(C)O)c(C(N)=O)n1Cc1ccc(-c2cc(Cc3ccc(O)cc3)ccc2-c2nnn[nH]2)cc1 [R794847] | none of the compounds (R239470, R781253, and R794847) affected IP production | increased IP production | agonist
CCCc1nc(C(C)(C)O)c(C(N)=O)n1Cc1ccc(-c2ccccc2-c2nnn[nH]2)cc1 [R239470] | none of the compounds (R239470, R781253, and R794847) affected IP production | did not change IP production | neutral antagonist
CCCc1nc(C(C)(C)O)c(C(=O)O)n1Cc1ccc(-c2ccccc2-c2nnn[nH]2)cc1 [Olmesartan, olmesartan] | significant reduction in basal IP production levels | significant reduction in basal IP production levels | inverse agonism
CCCc1nc(C(C)(C)O)c(C(=O)O)n1Cc1ccc(-c2cc(Cc3ccc(O)cc3)ccc2-c2nnn[nH]2)cc1 [R781253] | none of the compounds (R239470, R781253, and R794847) affected IP production | significantly decreased | inverse agonist
